Test results from patent US9376662B2, “Increasing cell culture population doublings for long-term growth of finite life span human cell cultures” (The Regents of the University of California, priority 2006, dated 2016).
Entries after “also recorded” stand apart in the source; their conditions may differ.

Experiments:
Format in all cases: cell-based, human
pre-stasis HMEC [1] = experiment: Growth of pre-stasis HMEC on different substrates; conditions: compared with plastic
Method: Referring to FIG. 18, 184 HMEC, batch f, were grown in MM in primary culture and switched to M85 at passage 2. At passage 4 they were switched to M87 and grown on plastic (♦), laminin on plastic (▪), or laminin on LUMOX dishes (▴) (which allow the cells to grow on a gas-permeable substrate).
Referring to FIG. 19, pre-stasis 48RT HMEC were grown from primary culture in M85+oxytocin and switched at passage 6 to growth on laminin on plastic or plastic alone.

pre-stasis HMEC [2] = experiment: Long-term growth of pre-stasis HMEC: total population doublings (PD) prior to stasis; conditions: for total PD with oxytocin added to M85: oxytocin added at primary culture or passage 2
Method: See FIG. 7, where the increased PD shown by HMEC from specimen 184, batch ⋄, is also seen in HMEC obtained from the 2 other donors tested, 48R, batch T, and 240L, batch B. Specimen 240L was grown only in M85 with oxytocin from primary organoids. Specimen 48R was grown in M85±oxytocin from primary organoids. For comparison, growth of specimen 184 in MM is shown. 184 HMEC batch ⋄ and 48RT+oxytocin were grown in 20% O2. The other cultures were grown in 3% O2.
HMEC placed in a medium containing ˜1% serum and conditioned media (MM) have active growth for ˜15-30 PD; cells grown in a serum-free medium (MCDB170) show active proliferation for ˜10-20 PD; HMEC grown in MM in a low oxygen environment (3% vs. 20%) grow for an additional ˜4 PD.
(§1) Short-term growth assays are done by measuring 24 hr labeling index (LI) at midconfluence and p16 expression and cell numbers at confluence in different media (as shown in FIG. 13). […] Other assays will transfer growing populations a few passages before stasis to media lacking specific components and assay LI and p16 (as shown in FIG. 12).

p16 protein = experiment: Immunohistochemical staining for p16 protein and labeling index (LI) in pre-stasis HMEC; conditions: 184 HMEC in M85, 48 days post-seeding, 20% O2
Text: Note the gradually increasing expression of p16 with passage and the gradual reduction in the growing population. Note also the reciprocity between positive labeling of the small cell population with BrdU and the positive staining of the larger cell population for p16 expression.
Referring now to FIGS. 3-5, which show pre-stasis growth of 184 HMEC in different media and immunohistochemical staining for p16 protein. 184 HMEC were started in M85 and subcultured at passage 2 into M85 with cholera toxin with or without oxytocin, in 20% O2. […] Note the large cells staining for p16 with the small cells still negative for p16 but positive for LI (indicative of DNA synthesis).
as §1

Molecule | proliferation as the cells approach stasis (pre-stasis HMEC [1]) | growth conditions at the lower oxytocin concentration (pre-stasis HMEC [2]; 0.1 nM compared with 1.0 nM oxytocin) | PD potential in the presence of oxytocin (pre-stasis HMEC [2]; 184 HMEC in M85 with or without oxytocin) | increase in population doublings by oxytocin (pre-stasis HMEC [2]; M85 base medium, about 45 PD to about 60 PD) | total PD with oxytocin added to M85 (pre-stasis HMEC [2]; M85 base medium) | total PD with oxytocin added to M85 (pre-stasis HMEC [2]; M85 base medium, listed as Oxytocin) | p16 expression with oxytocin compared to without (p16 protein)
laminin | more proliferation occurred |  |  |  |  |  | 
CC[C@H](C)[C@@H]1NC(=O)[C@H](Cc2ccc(O)cc2)NC(=O)[C@@H](N)CSSC[C@@H](C(=O)N2CCC[C@H]2C(=O)N[C@@H](CC(C)C)C(=O)NCC(N)=O)NC(=O)[C@H](CC(N)=O)NC(=O)[C@H](CCC(N)=O)NC1=O [oxytocin] |  | provided better growth conditions than 1.0 nM | greatly increased PD potential; also recorded: significant increase in total PD | 33% | around 60 PD | up to 60 PD | lower level of p16 expression
